Test results reported in the supplement of paper PMC10307832.

How the values were obtained:
Assay in all cases: relative viability (nuclei count vs DMSO), 5 days (fraction); higher = more cells survive
LXF-289 = test system: LXF-289
Method in brief: (§1)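 Dosing by pin tool came one day after lung cancer cell lines were seeded in 1536-well plates, using either one drug or a fixed anchor-drug dose plus five library-drug doses (not always all listed) in √10 steps. After 5 days, nuclei were counted on 4× images. Relative viability is treated-well nuclei count divided by vehicle-well nuclei count, and values are medians of duplicate plates.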

EMC-BAC-2 = test system: EMC-BAC-2
Method in brief: as §1

ABC-1 = test system: ABC-1
Method in brief: as §1

NCI-H1666 = test system: NCI-H1666
Method in brief: as §1

NCI-H1915 = test system: NCI-H1915
Method in brief: as §1

HOP-62 = test system: HOP-62
Method in brief: as §1

HCC-15 = test system: HCC-15
Method in brief: as §1

NCI-H358 = test system: NCI-H358
Method in brief: as §1

NCI-H441 = test system: NCI-H441
Method in brief: as §1

NCI-H1975 = test system: NCI-H1975
Method in brief: as §1

ChaGo-K-1 = test system: ChaGo-K-1
Method in brief: as §1

NCI-H3122 = test system: NCI-H3122
Method in brief: as §1

CAL-12T = test system: CAL-12T
Method in brief: as §1

NCI-H1993 = test system: NCI-H1993
Method in brief: as §1

NCI-H522 = test system: NCI-H522
Method in brief: as §1

NCI-H2085 = test system: NCI-H2085
Method in brief: as §1

NCI-H1755 = test system: NCI-H1755
Method in brief: as §1

HCC-78 = test system: HCC-78
Method in brief: as §1

NCI-H322M = test system: NCI-H322M
Method in brief: as §1

EPLC-272H = test system: EPLC-272H
Method in brief: as §1

NCI-H2126 = test system: NCI-H2126
Method in brief: as §1

For `C[C@@H]1CN(CC(=O)Nc2ccc3c(c2)Cc2cccc(-c4cc(=O)cc(N5CCOCC5)o4)c2S3)C[C@H](C)O1` + NC(=O)Nc1cc(-c2cccc(F)c2)sc1C(=O)N[C@H]1CCCNC1 [AZD7762] (partner 0.2 µM), the relative viability (LXF-289; first compound 0.04 µM) was 1.05, the relative viability (LXF-289; first compound 0.1265 µM) was 1.12 and the relative viability (LXF-289; first compound 0.4 µM) was 1.19. It also gave a relative viability (LXF-289; first compound 4 µM) of 1.04, a relative viability (EMC-BAC-2; first compound 0.04 µM) of 1.1 and a relative viability (EMC-BAC-2; first compound 0.1265 µM) of 1.15. It also gave a relative viability (EMC-BAC-2; first compound 0.4 µM) of 1.08, a relative viability (EMC-BAC-2; first compound 4 µM) of 1.24 and a relative viability (ABC-1; first compound 0.1265 µM) of 0.742. For the same compound, the relative viability (ABC-1; first compound 0.4 µM) was 1.52, the relative viability (ABC-1; first compound 4 µM) was 0.971 and the relative viability (NCI-H1666; first compound 0.04 µM) was 0.891. For the same compound, the relative viability (NCI-H1666; first compound 0.1265 µM) was 0.891, the relative viability (NCI-H1666; first compound 0.4 µM) was 0.941 and the relative viability (NCI-H1666; first compound 4 µM) was 0.765. The relative viability (NCI-H1915; first compound 0.04 µM) was 0.575, the relative viability (NCI-H1915; first compound 0.1265 µM) was 0.727 and the relative viability (NCI-H1915; first compound 0.4 µM) was 0.735. For the same compound, the relative viability (NCI-H1915; first compound 4 µM) was 0.515, the relative viability (HOP-62; first compound 0.04 µM) was 0.445 and the relative viability (HOP-62; first compound 0.1265 µM) was 0.599. The relative viability (HOP-62; first compound 0.4 µM) was 0.739, the relative viability (HOP-62; first compound 4 µM) was 0.624 and the relative viability (HCC-15; first compound 0.04 µM) was 1.18. The relative viability (HCC-15; first compound 0.1265 µM) was 1.06, the relative viability (HCC-15; first compound 0.4 µM) was 1.37 and the relative viability (HCC-15; first compound 4 µM) was 1.05. It also gave a relative viability (NCI-H358; first compound 0.04 µM) of 0.463, a relative viability (NCI-H358; first compound 0.1265 µM) of 0.416 and a relative viability (NCI-H358; first compound 0.4 µM) of 0.539. For the same compound, the relative viability (NCI-H358; first compound 4 µM) was 0.365, the relative viability (NCI-H441; first compound 0.04 µM) was 1.28 and the relative viability (NCI-H441; first compound 0.1265 µM) was 1.16. The relative viability (NCI-H441; first compound 0.4 µM) was 1.02, the relative viability (NCI-H441; first compound 4 µM) was 1.01 and the relative viability (NCI-H1975; first compound 0.04 µM) was 0.729. It also gave a relative viability (NCI-H1975; first compound 0.1265 µM) of 0.608, a relative viability (NCI-H1975; first compound 0.4 µM) of 0.624 and a relative viability (NCI-H1975; first compound 4 µM) of 0.585. It also gave a relative viability (ChaGo-K-1; first compound 0.04 µM) of 0.836, a relative viability (ChaGo-K-1; first compound 0.1265 µM) of 0.855 and a relative viability (ChaGo-K-1; first compound 0.4 µM) of 0.847. For the same compound, the relative viability (ChaGo-K-1; first compound 4 µM) was 0.799, the relative viability (NCI-H3122; first compound 0.04 µM) was 1.01 and the relative viability (NCI-H3122; first compound 0.1265 µM) was 0.922. The relative viability (NCI-H3122; first compound 0.4 µM) was 1.05, the relative viability (NCI-H3122; first compound 4 µM) was 0.733 and the relative viability (CAL-12T; first compound 0.04 µM) was 0.644. It also gave a relative viability (CAL-12T; first compound 0.1265 µM) of 0.565, a relative viability (CAL-12T; first compound 0.4 µM) of 0.594 and a relative viability (CAL-12T; first compound 4 µM) of 0.38. The relative viability (NCI-H1993; first compound 0.04 µM) was 0.752, the relative viability (NCI-H1993; first compound 0.1265 µM) was 0.737 and the relative viability (NCI-H1993; first compound 0.4 µM) was 0.611. It also gave a relative viability (NCI-H1993; first compound 4 µM) of 0.55, a relative viability (NCI-H522; first compound 0.04 µM) of 0.526 and a relative viability (NCI-H522; first compound 0.1265 µM) of 0.743. The relative viability (NCI-H522; first compound 0.4 µM) was 0.908, the relative viability (NCI-H522; first compound 4 µM) was 0.814 and the relative viability (NCI-H2085; first compound 0.04 µM) was 0.959. For the same compound, the relative viability (NCI-H2085; first compound 0.1265 µM) was 1.06, the relative viability (NCI-H2085; first compound 0.4 µM) was 0.997 and the relative viability (NCI-H2085; first compound 4 µM) was 0.796. The relative viability (NCI-H1755; first compound 0.04 µM) was 0.422, the relative viability (NCI-H1755; first compound 0.1265 µM) was 0.44 and the relative viability (NCI-H1755; first compound 0.4 µM) was 0.494. It also gave a relative viability (NCI-H1755; first compound 4 µM) of 0.445, a relative viability (HCC-78; first compound 0.04 µM) of 0.502 and a relative viability (HCC-78; first compound 0.1265 µM) of 0.642. For the same compound, the relative viability (HCC-78; first compound 0.4 µM) was 0.479, the relative viability (HCC-78; first compound 4 µM) was 0.66 and the relative viability (NCI-H322M; first compound 0.04 µM) was 0.527. For the same compound, the relative viability (NCI-H322M; first compound 0.1265 µM) was 0.546, the relative viability (NCI-H322M; first compound 0.4 µM) was 0.702 and the relative viability (NCI-H322M; first compound 4 µM) was 0.56. For the same compound, the relative viability (EPLC-272H; first compound 0.04 µM) was 0.237, the relative viability (EPLC-272H; first compound 0.1265 µM) was 0.348 and the relative viability (EPLC-272H; first compound 0.4 µM) was 0.226. It also gave a relative viability (EPLC-272H; first compound 4 µM) of 0.321, a relative viability (NCI-H2126; first compound 0.04 µM) of 0.91 and a relative viability (NCI-H2126; first compound 0.1265 µM) of 1.02. The relative viability (NCI-H2126; first compound 0.4 µM) was 0.964 and the relative viability (NCI-H2126; first compound 4 µM) was 1.02.
`CC(C)Oc1cc(Nc2nc(N[C@@H](C)c3ccc(F)cn3)ncc2Cl)n[nH]1` [AZ23] + NC(=O)Nc1cc(-c2cccc(F)c2)sc1C(=O)N[C@H]1CCCNC1 [AZD7762] (partner 0.2 µM) was tested, and the relative viability (LXF-289; first compound 0.01 µM) was 1.14, the relative viability (LXF-289; first compound 0.03162 µM) was 1.24 and the relative viability (LXF-289; first compound 0.3162 µM) was 1.27. It also gave a relative viability (EMC-BAC-2; first compound 0.01 µM) of 0.983, a relative viability (EMC-BAC-2; first compound 0.03162 µM) of 1.21 and a relative viability (EMC-BAC-2; first compound 0.3162 µM) of 1.03. The relative viability (ABC-1; first compound 0.03162 µM) was 1.23, the relative viability (ABC-1; first compound 0.3162 µM) was 0.835 and the relative viability (NCI-H1666; first compound 0.01 µM) was 0.91. It also gave a relative viability (NCI-H1666; first compound 0.03162 µM) of 0.772, a relative viability (NCI-H1666; first compound 0.3162 µM) of 0.977 and a relative viability (NCI-H1915; first compound 0.01 µM) of 0.758. For the same compound, the relative viability (NCI-H1915; first compound 0.03162 µM) was 0.737, the relative viability (NCI-H1915; first compound 0.3162 µM) was 0.796 and the relative viability (HOP-62; first compound 0.01 µM) was 0.493. For the same compound, the relative viability (HOP-62; first compound 0.03162 µM) was 0.804, the relative viability (HOP-62; first compound 0.3162 µM) was 0.863 and the relative viability (HCC-15; first compound 0.01 µM) was 1.43. The relative viability (HCC-15; first compound 0.03162 µM) was 1.34, the relative viability (HCC-15; first compound 0.3162 µM) was 1.35 and the relative viability (NCI-H358; first compound 0.01 µM) was 0.447. For the same compound, the relative viability (NCI-H358; first compound 0.03162 µM) was 0.653, the relative viability (NCI-H358; first compound 0.3162 µM) was 0.514 and the relative viability (NCI-H441; first compound 0.01 µM) was 1.17. It also gave a relative viability (NCI-H441; first compound 0.03162 µM) of 1.03, a relative viability (NCI-H441; first compound 0.3162 µM) of 1.33 and a relative viability (NCI-H1975; first compound 0.01 µM) of 0.555. The relative viability (NCI-H1975; first compound 0.03162 µM) was 0.799, the relative viability (NCI-H1975; first compound 0.3162 µM) was 0.828 and the relative viability (ChaGo-K-1; first compound 0.01 µM) was 0.93. The relative viability (ChaGo-K-1; first compound 0.03162 µM) was 0.811, the relative viability (ChaGo-K-1; first compound 0.3162 µM) was 0.959 and the relative viability (NCI-H3122; first compound 0.01 µM) was 1.22. It also gave a relative viability (NCI-H3122; first compound 0.03162 µM) of 1.03, a relative viability (NCI-H3122; first compound 0.3162 µM) of 1.02 and a relative viability (CAL-12T; first compound 0.01 µM) of 0.614. The relative viability (CAL-12T; first compound 0.03162 µM) was 0.689, the relative viability (CAL-12T; first compound 0.3162 µM) was 0.717 and the relative viability (NCI-H1993; first compound 0.01 µM) was 0.703. The relative viability (NCI-H1993; first compound 0.03162 µM) was 0.749, the relative viability (NCI-H1993; first compound 0.3162 µM) was 0.965 and the relative viability (NCI-H522; first compound 0.01 µM) was 0.935. It also gave a relative viability (NCI-H522; first compound 0.03162 µM) of 0.95, a relative viability (NCI-H522; first compound 0.3162 µM) of 0.809 and a relative viability (NCI-H2085; first compound 0.01 µM) of 0.923. For the same compound, the relative viability (NCI-H2085; first compound 0.03162 µM) was 0.975, the relative viability (NCI-H2085; first compound 0.3162 µM) was 1.08 and the relative viability (NCI-H1755; first compound 0.01 µM) was 0.413. The relative viability (NCI-H1755; first compound 0.03162 µM) was 0.471, the relative viability (NCI-H1755; first compound 0.3162 µM) was 0.477 and the relative viability (HCC-78; first compound 0.01 µM) was 0.516. For the same compound, the relative viability (HCC-78; first compound 0.03162 µM) was 0.697, the relative viability (HCC-78; first compound 0.3162 µM) was 0.681 and the relative viability (NCI-H322M; first compound 0.01 µM) was 0.468. For the same compound, the relative viability (NCI-H322M; first compound 0.03162 µM) was 0.527, the relative viability (NCI-H322M; first compound 0.3162 µM) was 0.614 and the relative viability (EPLC-272H; first compound 0.03162 µM) was 0.254. The relative viability (EPLC-272H; first compound 0.3162 µM) was 0.251, the relative viability (NCI-H2126; first compound 0.01 µM) was 1.04 and the relative viability (NCI-H2126; first compound 0.03162 µM) was 1.07. For the same compound, the relative viability (NCI-H2126; first compound 0.3162 µM) was 1.07.
